These are literature values, as cited in patent US6987129B2, “Compounds and methods for the treatment of urogenital disorders” (Cellegy Pharmaceuticals, Inc., priority 2001, dated 2006).

One data set deals with women with FSAD. To be noted: human, in vivo.
The conditions of data set [1]: in vivo.

Consider `CCCc1nn(C)c2c(=O)[nH]c(-c3cc(S(=O)(=O)N4CCN(C)CC4)ccc3OCC)nc12` [Sildenafil], for which, in the data set with women with FSAD, the “efficacy in a larger clinical trial including other patients suffering from FSAD” value is “failed to show efficacy”; the “efficacy in women with spinal cord injury and in women using antidepressants such as serotonin reuptake inhibitors” value is given as “demonstrated efficacy”.
As to `Cn1c(=O)c2c(ncn2CC(O)CO)n(C)c1=O` (stereo not shown) [dyphylline], in data set [1], the excretion entry is recorded as “excreted unchanged by the kidneys” and the “metabolism by the liver” value was “not metabolized by the liver”.
